# From PubChem BioAssay (NCI)
#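 In this assay, cells in 96-well plates receive the compound at five concentrations for 48 hours. Endpoints are linearly interpolated between the surrounding concentrations. GI50: concentration for 50% inhibition of growth. At the TGI there is no net growth.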
# Key:
# Assay in all cases: NCI anticancer screen, dose series, 48 h
# HCC-2998 colon = system: HCC-2998 colon
# HOP-92 NSCLC = system: HOP-92 NSCLC
# KM12 colon = system: KM12 colon
# SK-MEL-28 melanoma = system: SK-MEL-28 melanoma
# UACC-62 melanoma = system: UACC-62 melanoma
# SK-OV-3 ovarian = system: SK-OV-3 ovarian
# SF-295 CNS = system: SF-295 CNS
# NCI/ADR-RES ovarian = system: NCI/ADR-RES ovarian
# RPMI-8226 leukemia = system: RPMI-8226 leukemia
# UO-31 renal = system: UO-31 renal
# OVCAR-3 ovarian = system: OVCAR-3 ovarian
# MCF7 breast = system: MCF7 breast
# HCT-116 colon = system: HCT-116 colon
# HOP-62 NSCLC = system: HOP-62 NSCLC
# OVCAR-8 ovarian = system: OVCAR-8 ovarian
# RXF 393 renal = system: RXF 393 renal
# COLO 205 colon = system: COLO 205 colon
# HS 578T breast = system: HS 578T breast
# HL-60(TB) leukemia = system: HL-60(TB) leukemia
# SR leukemia = system: SR leukemia
# U251 CNS = system: U251 CNS
# SW-620 colon = system: SW-620 colon
# LOX IMVI melanoma = system: LOX IMVI melanoma
# HCT-15 colon = system: HCT-15 colon
# NCI-H522 lung = system: NCI-H522 lung
# A549 NSCLC = system: A549 NSCLC
# UACC-257 melanoma = system: UACC-257 melanoma
# ACHN renal = system: ACHN renal
# MDA-MB-435 = system: MDA-MB-435
# IGROV1 ovarian = system: IGROV1 ovarian
# MALME-3M melanoma = system: MALME-3M melanoma
# NCI-H23 lung = system: NCI-H23 lung
# MOLT-4 leukemia = system: MOLT-4 leukemia
# CAKI-1 renal = system: CAKI-1 renal
# A498 renal = system: A498 renal
# SN12C renal = system: SN12C renal
# SF-268 CNS = system: SF-268 CNS
# SK-MEL-2 melanoma = system: SK-MEL-2 melanoma
# SK-MEL-5 melanoma = system: SK-MEL-5 melanoma
# CCRF-CEM leukemia = system: CCRF-CEM leukemia
# SNB-19 CNS = system: SNB-19 CNS
# NCI-H460 lung = system: NCI-H460 lung
# MDA-MB-468 breast = system: MDA-MB-468 breast
# K-562 leukemia = system: K-562 leukemia
# NCI-H226 lung = system: NCI-H226 lung
# M14 melanoma = system: M14 melanoma
# EKVX NSCLC = system: EKVX NSCLC
# DU-145 prostate = system: DU-145 prostate
# 786-0 renal = system: 786-0 renal
# TK-10 renal = system: TK-10 renal
# HT29 colon = system: HT29 colon
# SNB-75 CNS = system: SNB-75 CNS
# OVCAR-4 ovarian = system: OVCAR-4 ovarian
# BT-549 breast = system: BT-549 breast
# PC-3 prostate = system: PC-3 prostate
# T-47D breast = system: T-47D breast
# MDA-MB-231 breast = system: MDA-MB-231 breast
# SF-539 CNS = system: SF-539 CNS
# OVCAR-5 ovarian = system: OVCAR-5 ovarian
smiles,measurement,setting,value
C[C@@H](Nc1c(C#N)cnc2ccc(-c3cnc4[nH]ncc4c3)cc12)c1ccccc1,GI50,HCC-2998 colon,4.69 µM
same,TGI,HCC-2998 colon,26 µM
same,GI50,HOP-92 NSCLC,1.08 µM
same,TGI,HOP-92 NSCLC,7.29 µM
same,GI50,KM12 colon,4.2 µM
same,TGI,KM12 colon,21.5 µM
same,GI50,SK-MEL-28 melanoma,2.06 µM
same,TGI,SK-MEL-28 melanoma,14.4 µM
same,GI50,UACC-62 melanoma,1.94 µM
same,TGI,UACC-62 melanoma,5.86 µM
same,GI50,SK-OV-3 ovarian,2.16 µM
same,TGI,SK-OV-3 ovarian,7.98 µM
same,GI50,SF-295 CNS,2.11 µM
same,TGI,SF-295 CNS,10.5 µM
same,GI50,NCI/ADR-RES ovarian,3.71 µM
same,TGI,NCI/ADR-RES ovarian,34.8 µM
same,GI50,RPMI-8226 leukemia,2.04 µM
same,TGI,RPMI-8226 leukemia,11.3 µM
same,GI50,UO-31 renal,0.468 µM
same,TGI,UO-31 renal,10.8 µM
same,GI50,OVCAR-3 ovarian,2.14 µM
same,TGI,OVCAR-3 ovarian,11.9 µM
same,GI50,MCF7 breast,1.87 µM
same,TGI,MCF7 breast,7.81 µM
same,GI50,HCT-116 colon,3.77 µM
same,TGI,HCT-116 colon,16.1 µM
same,GI50,HOP-62 NSCLC,3.03 µM
same,TGI,HOP-62 NSCLC,19 µM
same,GI50,OVCAR-8 ovarian,2.33 µM
same,TGI,OVCAR-8 ovarian,23.5 µM
same,GI50,RXF 393 renal,1.26 µM
same,TGI,RXF 393 renal,3.55 µM
same,GI50,COLO 205 colon,16.3 µM
same,TGI,COLO 205 colon,37 µM
same,GI50,HS 578T breast,1.27 µM
same,TGI,HS 578T breast,5.37 µM
same,GI50,HL-60(TB) leukemia,1.74 µM
same,TGI,HL-60(TB) leukemia,7.98 µM
same,GI50,SR leukemia,2.23 µM
same,TGI,SR leukemia,19.7 µM
same,GI50,U251 CNS,4.91 µM
same,TGI,U251 CNS,22.7 µM
same,GI50,SW-620 colon,4.65 µM
same,TGI,SW-620 colon,23.2 µM
same,GI50,LOX IMVI melanoma,3.12 µM
same,TGI,LOX IMVI melanoma,16.7 µM
same,GI50,HCT-15 colon,3.17 µM
same,TGI,HCT-15 colon,16.4 µM
same,GI50,NCI-H522 lung,1.71 µM
same,TGI,NCI-H522 lung,11.6 µM
same,GI50,A549 NSCLC,2.53 µM
same,TGI,A549 NSCLC,10.9 µM
same,GI50,UACC-257 melanoma,3.24 µM
same,TGI,UACC-257 melanoma,16.3 µM
same,GI50,ACHN renal,0.699 µM
same,TGI,ACHN renal,11.3 µM
same,GI50,MDA-MB-435,3.5 µM
same,TGI,MDA-MB-435,19.5 µM
same,GI50,IGROV1 ovarian,1.91 µM
same,TGI,IGROV1 ovarian,4.07 µM
same,GI50,MALME-3M melanoma,1.16 µM
same,TGI,MALME-3M melanoma,7.27 µM
same,GI50,NCI-H23 lung,4.31 µM
same,TGI,NCI-H23 lung,22 µM
same,GI50,MOLT-4 leukemia,1.61 µM
same,TGI,MOLT-4 leukemia,5.02 µM
same,GI50,CAKI-1 renal,2.78 µM
same,TGI,CAKI-1 renal,10.9 µM
same,GI50,A498 renal,2.55 µM
same,TGI,A498 renal,6.8 µM
same,GI50,SN12C renal,1.57 µM
same,TGI,SN12C renal,12.8 µM
same,GI50,SF-268 CNS,3.56 µM
same,TGI,SF-268 CNS,34 µM
same,GI50,SK-MEL-2 melanoma,3.23 µM
same,TGI,SK-MEL-2 melanoma,16 µM
same,GI50,SK-MEL-5 melanoma,1.71 µM
same,TGI,SK-MEL-5 melanoma,5.96 µM
same,GI50,CCRF-CEM leukemia,2.46 µM
same,TGI,CCRF-CEM leukemia,> 100 µM
same,GI50,SNB-19 CNS,2.48 µM
same,TGI,SNB-19 CNS,28 µM
same,GI50,NCI-H460 lung,2.66 µM
same,TGI,NCI-H460 lung,13.2 µM
same,GI50,MDA-MB-468 breast,1.16 µM
same,TGI,MDA-MB-468 breast,2.67 µM
same,GI50,K-562 leukemia,4.67 µM
same,TGI,K-562 leukemia,> 100 µM
same,GI50,NCI-H226 lung,2.85 µM
same,TGI,NCI-H226 lung,14.3 µM
same,GI50,M14 melanoma,2.43 µM
same,TGI,M14 melanoma,19.1 µM
same,GI50,EKVX NSCLC,0.827 µM
same,TGI,EKVX NSCLC,4.45 µM
same,GI50,DU-145 prostate,2.76 µM
same,TGI,DU-145 prostate,25.2 µM
same,GI50,786-0 renal,2.74 µM
same,TGI,786-0 renal,11.3 µM
same,GI50,TK-10 renal,2.96 µM
same,TGI,TK-10 renal,8.36 µM
same,GI50,HT29 colon,14.5 µM
same,TGI,HT29 colon,35.2 µM
same,GI50,SNB-75 CNS,1.1 µM
same,TGI,SNB-75 CNS,5.16 µM
same,GI50,OVCAR-4 ovarian,3.47 µM
same,TGI,OVCAR-4 ovarian,18 µM
same,GI50,BT-549 breast,0.353 µM
same,TGI,BT-549 breast,4.83 µM
same,GI50,PC-3 prostate,2.58 µM
same,TGI,PC-3 prostate,> 100 µM
same,GI50,T-47D breast,2.88 µM
same,TGI,T-47D breast,8.36 µM
same,GI50,MDA-MB-231 breast,2.38 µM
same,TGI,MDA-MB-231 breast,13.8 µM
same,GI50,SF-539 CNS,2.59 µM
same,TGI,SF-539 CNS,12.2 µM
same,GI50,OVCAR-5 ovarian,3.89 µM
same,TGI,OVCAR-5 ovarian,18.3 µM
